In ChEMBL document CHEMBL1909590, “Design, synthesis and docking studies of new quinoline-3-carbohydrazide derivatives as antitubercular agents” (2011):
In brackets after ≈: the same amount, converted by molar mass.

Each compound was assayed on Mycobacterium tuberculosis (assay: Antimycobacterial activity against isoniazid, rifampicin and ethambuto-resistant Mycobacterium tuberculosis using compound level ranging from 0.3125 to 5 ug/mL after 7 days by resazurin reduction test). Settings: 168 h.
Format: functional

Structure (SMILES) | MIC
Cc1[nH]cnc1/C=N/NC(=O)c1cnc2c(C(F)(F)F)cccc2c1O | > 50 µg/mL
COc1ccc2[nH]cc(/C=N/NC(=O)c3cnc4c(C(F)(F)F)cccc4c3O)c2c1 | 6.25 µg/mL (≈ 14.6 µM)
COC(=O)Cc1cc(/C=N/NC(=O)c2cnc3c(C(F)(F)F)cccc3c2O)co1 | > 50 µg/mL
O=C(N/N=C/c1cnc[nH]1)c1cnc2c(C(F)(F)F)cccc2c1O | > 50 µg/mL
Cc1cccc2c(/C=N/NC(=O)c3cnc4c(C(F)(F)F)cccc4c3O)c[nH]c12 | 6.25 µg/mL (≈ 15.2 µM)
Cn1nnc2cc(/C=N\NC(=O)c3cnc4c(C(F)(F)F)cccc4c3O)ccc21 | > 50 µg/mL
Cn1cccc1/C=N\NC(=O)c1cnc2c(C(F)(F)F)cccc2c1O | 6.25 µg/mL (≈ 17.3 µM)
COc1ccc(/C=N/NC(=O)c2cnc3c(C(F)(F)F)cccc3c2O)c(F)c1 | 6.25 µg/mL (≈ 15.3 µM)
O=C(N/N=C/c1ccc(OC(F)(F)C(F)F)cc1)c1cnc2c(C(F)(F)F)cccc2c1O | 25 µg/mL (≈ 52.6 µM)
O=C(N/N=C/c1cc(F)ccc1O)c1cnc2c(C(F)(F)F)cccc2c1O | > 50 µg/mL
COc1ccc(/C=N/NC(=O)c2cnc3c(C(F)(F)F)cccc3c2O)cc1 | 12.5 µg/mL (≈ 32.1 µM)
COc1ccc(/C=N/NC(=O)c2cnc3c(C(F)(F)F)cccc3c2O)cc1O | > 50 µg/mL
Cc1ccc(/C=N/NC(=O)c2cnc3c(C(F)(F)F)cccc3c2O)cc1 | > 50 µg/mL
O=C(NNC(=S)Nc1cccc(Cl)c1)c1cnc2c(C(F)(F)F)cccc2c1O | 25 µg/mL (≈ 56.7 µM)
O=C(NNC(=S)Nc1ccccc1F)c1cnc2c(C(F)(F)F)cccc2c1O | 12.5 µg/mL (≈ 29.5 µM)
COc1ccc(NC(=S)NNC(=O)c2cnc3c(C(F)(F)F)cccc3c2O)cc1 | > 50 µg/mL
Cc1cc(C)cc(NC(=O)NNC(=O)c2cnc3c(C(F)(F)F)cccc3c2O)c1 | > 50 µg/mL
O=C(NNC(=O)c1cnc2c(C(F)(F)F)cccc2c1O)Nc1cccc(Cl)c1 | 25 µg/mL (≈ 58.9 µM)
COc1ccc(NC(=O)NNC(=O)c2cnc3c(C(F)(F)F)cccc3c2O)cc1 | 12.5 µg/mL (≈ 29.7 µM)
Cc1ccc(NC(=O)NNC(=O)c2cnc3c(C(F)(F)F)cccc3c2O)cc1 | 25 µg/mL (≈ 61.8 µM)
CCc1ccc(NC(=O)NNC(=O)c2cnc3c(C(F)(F)F)cccc3c2O)cc1 | > 50 µg/mL
NNC(=O)c1ccncc1 [ISONIAZID] | 12.5 µg/mL (≈ 91.1 µM)
CO[C@H]1/C=C/O[C@@]2(C)Oc3c(C)c(O)c4c(O)c(c(/C=N/N5CCN(C)CC5)c(O)c4c3C2=O)NC(=O)/C(C)=C\C=C\[C@H](C)[C@H](O)[C@@H](C)[C@@H](O)[C@@H](C)[C@H](OC(C)=O)[C@@H]1C [RIFAMPIN] | 25 µg/mL (≈ 30.4 µM)
